Measurements: article PMC12173412 (PLOS Neglected Tropical Diseases, 2025)

Tests used:
[1] = biological target: Niemann-Pick type C2 (NPC2); type: binding, Haemaphysalis longicornis
[2] = biological target: Odor Binding Protein-like (OBPL); parameters: species or system Haemaphysalis longicornis
[3] = biological target: Niemann-Pick type C2 (NPC2); type: binding, Haemaphysalis longicornis; remark: listed apart in the source
[4] = biological target: Odor Binding Protein-like (OBPL); parameters: species or system Haemaphysalis longicornis; remark: listed apart in the source

Compound	Ki [1] [µM]	Ki [2] [µM]	Kd [3] [µM]	Kd [4] [µM]
c1ccc2[nH]ccc2c1 [indole]	10.3	2.26		
Cc1c[nH]c2ccccc12 [3-methylindole]	15.4	4.19		
c1ccc(Nc2cccc3ccccc23)cc1 [1-NPN]			3.18	2.56
